This is an account of results in paper PMC6315844, “Two Novel Multi-Functional Peptides from Meat and Visceral Mass of Marine Snail Neptunea arthritica cumingii and Their Activities In Vitro and In Vivo” (Marine Drugs, 2018).

No end group written: not given here.

Assay [1] is described as follows: DPPH radical scavenging activity. Particulars: for DPPH Radical Scavenging Activity (%): fractions purified from M-F and VM-F using HILIC, all at the same concentration (not given), n = 3, mean ± SD; for EC50: natural purified peptide, Figure 3a, tests repeated three times, read-out: EC50 values of active peptides: DPPH. The procedure: The DPPH radical scavenging activity of the two peptide fractions was determined according to the methods described by Lee et al.. Vitamin C was used as a positive control. The EC50 values for DPPH radical scavenging was determined.
A general note: DPPH is a stable violet radical that fades when it is reduced.

Assay [2] in a line: Hydroxyl radical scavenging activity. Particulars: natural purified peptide; Figure 3a; tests repeated three times; read-out: EC50 values of active peptides: OH. On the procedure:
The hydroxyl radical scavenging activity of peptide fractions was determined according to the methods described by Dong et al.. Vitamin C was used as a positive control. The hydroxyl radical activity of active peptides was evaluated by EC50.

The target of assay [3] is T1, angiotensin-converting enzyme (from the rabbit lung) (Oryctolagus cuniculus, UniProt P12822).
T1 construct: angiotensin-converting enzyme (0.25 U·mL^−1, from the rabbit lung); purchased Sigma-Aldrich (Shanghai, China); host or cells: rabbit lung (tissue-derived)
T1 sequence (P12822 34-1310): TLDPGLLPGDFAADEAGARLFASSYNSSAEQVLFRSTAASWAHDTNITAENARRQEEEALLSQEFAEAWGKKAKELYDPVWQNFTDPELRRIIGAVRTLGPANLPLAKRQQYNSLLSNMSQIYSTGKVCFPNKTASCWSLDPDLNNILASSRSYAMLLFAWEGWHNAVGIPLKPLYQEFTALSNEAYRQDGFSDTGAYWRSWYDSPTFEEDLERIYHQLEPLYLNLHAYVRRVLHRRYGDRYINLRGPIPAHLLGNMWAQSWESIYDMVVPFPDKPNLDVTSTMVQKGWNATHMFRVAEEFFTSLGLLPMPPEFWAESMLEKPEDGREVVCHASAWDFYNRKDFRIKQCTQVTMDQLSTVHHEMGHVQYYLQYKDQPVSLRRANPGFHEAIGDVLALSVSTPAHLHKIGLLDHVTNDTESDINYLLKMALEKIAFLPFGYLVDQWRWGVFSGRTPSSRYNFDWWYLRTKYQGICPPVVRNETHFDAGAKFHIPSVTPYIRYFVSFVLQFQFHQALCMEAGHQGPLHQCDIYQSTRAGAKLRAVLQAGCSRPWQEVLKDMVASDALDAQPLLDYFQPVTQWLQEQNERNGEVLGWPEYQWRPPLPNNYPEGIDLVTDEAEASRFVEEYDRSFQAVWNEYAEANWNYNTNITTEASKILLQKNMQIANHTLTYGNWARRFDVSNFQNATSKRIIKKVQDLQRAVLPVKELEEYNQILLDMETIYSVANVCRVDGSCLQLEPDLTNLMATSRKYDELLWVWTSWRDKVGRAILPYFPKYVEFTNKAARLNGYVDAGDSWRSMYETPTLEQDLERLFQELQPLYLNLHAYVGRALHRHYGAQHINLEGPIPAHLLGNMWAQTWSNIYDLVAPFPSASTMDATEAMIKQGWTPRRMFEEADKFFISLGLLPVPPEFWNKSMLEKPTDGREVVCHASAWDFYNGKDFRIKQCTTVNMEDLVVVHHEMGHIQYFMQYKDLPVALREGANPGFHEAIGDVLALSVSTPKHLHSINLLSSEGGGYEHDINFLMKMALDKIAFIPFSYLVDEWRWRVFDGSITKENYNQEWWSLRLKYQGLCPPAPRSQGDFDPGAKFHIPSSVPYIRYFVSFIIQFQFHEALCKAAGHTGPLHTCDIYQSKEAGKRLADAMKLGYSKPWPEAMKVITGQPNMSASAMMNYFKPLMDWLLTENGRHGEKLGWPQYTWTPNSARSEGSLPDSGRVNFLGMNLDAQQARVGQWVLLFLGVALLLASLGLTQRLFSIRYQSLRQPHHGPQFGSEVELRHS
Put plainly: ACE-inhibitory activity. In kind it is biochemical. The following applies: for ACE-Inhibitory Activity (%): fractions purified from M-F and VM-F using HILIC, all at the same concentration (not given), n = 3, mean ± SD; for EC50: natural purified peptide, Figure 3a, tests repeated three times, read-out: EC50 values of active peptides: ACE. From the text:
DPPH, angiotensin-converting enzyme (0.25 U·mL^−1, from the rabbit lung), N-hippuryl-His-Leu hydrate (HHL), hippuric acid, and amino acid standards were purchased from Sigma-Aldrich (Shanghai, China). α-Glucosidase protease (50 U/mg, from yeast), α-amylase protease (50 U/mg, from Bacillus subtilis), acarbose, 4-nitrophenyl-β-D-galactopyranoside, 6-aminoquinolyl-N-hydroxysuccinimidyl carbamate (AQC), ribonuclease (13,700 Da, from the bovine pancreas), aprotinin hydrochloride (6511 Da, from the bovine lung), angiotensin II (1046 Da), and L-serine (105 Da) were purchased from Yuanye Biological Technology Co. (Shanghai, China). Trypsin (250 U/mg), pepsin (250 U/mg), Sephadex G25 gel, nifedipine, and vitamin C were purchased from Solarbio (Beijing, China). Transgenic zebrafish Tg (krt4:NTR-hKikGR)^cy17 are maintained in our lab. All chemicals and reagents used for HPLC were of chromatographic grade and other chemicals and reagents were of analytical grade.
ACE-inhibitory activity was measured according to the methods of Chen et al.. Nifedipine was used as a positive control. Results were reported as EC50 values.

With “YIAEDAER [VM-P7, Tyr-Ile-Ala-Glu-Asp-Ala-Glu-Arg]”, in assay [1], the “DPPH Radical Scavenging Activity (%)” value stood at 82.60 ± 0.86% and the EC50 (commonly the concentration at which the effect is half-maximal) came to 185 µM. The EC50 in assay [2] stood at 814 µM. In assay [3], the “ACE-Inhibitory Activity (%)” value was 74.95 ± 1.24% and the EC50 is 236 µM.

For the sequence “YSQLENEFDR [M-P6, Tyr-Ser-Gln-Leu-Glu-Asn-Glu-Phe-Asp-Arg]”, the “DPPH Radical Scavenging Activity (%)” value in assay [1] is 91.87 ± 0.62%. For the same sequence, the EC50 in assay [1] turned out to be 96.7 µM; in assay [2] it was 234 µM; in assay [3], 75.6 µM. The “ACE-Inhibitory Activity (%)” value in assay [3] was found to be 84.81 ± 0.35%.
